Experimental data from ChEMBL document CHEMBL4049432, “Structure-Guided Discovery of Potent and Selective Inhibitors of ERK1/2 from a Modestly Active and Promiscuous Chemical Start Point” (J Med Chem, 2017).

Experiments:
[1] = Octanol-aqueous phosphate buffer distribution coefficient, log D of the compound at pH 7.4; format: physicochemical
[2] = Volume of distribution at steady state in rat plasma; format: ADME; settings: read-out: Vdss
[3] = Oral bioavailability in rat; format: ADME, organism-based; settings: in vivo
[4] = Volume of distribution at steady state in dog plasma; format: ADME, Canis lupus familiaris; settings: read-out: Vdss
[5] = Oral bioavailability in dog; format: ADME, organism-based, Canis lupus familiaris; settings: in vivo

Row | SMILES | logD [1] | further results
1 | COCCN1C(=O)c2cc(-c3ccnc(Nc4ccnn4C)n3)[nH]c2C[C@@H]1C | 1.8 | 
2 | COCCN1C(=O)c2cc(-c3nc(Nc4ccnn4C)ncc3C)[nH]c2C[C@@H]1C | 2.11 | 
3 | COCCN1CCc2c(cc(-c3ccnc(NC4CCOCC4)n3)n2C)C1=O | 1.7 | 
4 | O=C1NCCc2[nH]c(-c3ccnc(NC4CCOCC4)n3)cc21 | 1.3 | 
5 | COCCN1C(=O)c2cc(-c3nc(Nc4ccnn4C)ncc3C)cn2C[C@@H]1C | 1.6 | 
6 | COCCN1C(=O)c2cc(-c3ccnc(Nc4ccnn4C)n3)[nH]c2C[C@H]1C | 1.7 | 
7 | COCCN1CCn2cc(-c3nc(Nc4ccnn4C)ncc3C)cc2C1=O | 1.3 | 
8 | O=C1NCCn2cc(-c3ccnc(NC4CCOCC4)n3)cc21 | 0.75 | 
9 | Cn1c(-c2ccnc(NC3CCOCC3)n2)cc2c1CCNC2=O | 1.3 | 
10 | O=C1c2cc(-c3ccnc(NC4CCOCC4)n3)[nH]c2CCN1[C@H](CO)c1ccc(F)c(Cl)c1 | 3.6 | 
11 | COCCN1C(=O)c2cc(-c3nc(Nc4ccnn4C)ncc3C)[nH]c2C[C@H]1C | 2.14 | 
12 | COCCN1C(=O)c2cc(-c3nc(Nc4ccnn4C)ncc3C)cn2C[C@H]1C | 1.7 | 
13 | O=C1c2cc(-c3ccnc(NC4CCOCC4)n3)[nH]c2CCN1[C@H](CO)c1ccc(Cl)c(F)c1 | 3.5 | 
14 | Cc1cccc(CN2C(=O)c3cc(-c4nc(Nc5ccnn5C)ncc4C)cn3C[C@H]2C)n1 |  | Vd [2]: 1.3 L/kg; bioavailability [3]: 31%; Vd [4]: 0.9 L/kg; bioavailability [5]: 87%
15 | Cc1cccc(CN2CCn3cc(-c4nc(Nc5ccnn5C)ncc4C)cc3C2=O)n1 | 2.2 | 
16 | Cc1cccc(CN2C(=O)c3cc(-c4ccnc(Nc5ccnn5C)n4)cn3CC2C)n1 (single isomer, unassigned; isomer 2) | 2.3 | 
17 | O=C1c2cc(-c3ccnc(NC4CCOCC4)n3)[nH]c2CCN1[C@H](CO)c1ccccc1 | 2.6 | 
18 | Cc1cccc(CN2CCc3[nH]c(-c4ccnc(NC5CCOCC5)n4)cc3C2=O)n1 | 2.4 | 
19 | CN1CCN(c2ccc(Nc3nccc(-c4cc5c([nH]4)CCNC5=O)n3)cc2)CC1 | 1.5 | 
20 | CN1CCc2[nH]c(-c3ccnc(NC4CCOCC4)n3)cc2C1=O | 1.6 | 
21 | COCCN1CCc2[nH]c(-c3ccnc(Nc4ccnn4C)n3)cc2C1=O | 1.4 | 
22 | COCCN1CCc2[nH]c(-c3ccnc(NC4CCOCC4)n3)cc2C1=O | 1.6 | 
23 | Cn1c(-c2ccnc(NC3CCOCC3)n2)cc2c1CCN(Cc1ccccc1)C2=O | 3.3 | 
24 | O=C1c2cc(-c3ccnc(NC4CCOCC4)n3)[nH]c2CCN1Cc1ccccc1 | 3.2 | 
